Consider four compounds from patent publication US20090022670A1, “NOVEL COMPOUNDS” (priority 2007, published 2009).

No end group written: not given here.

Experiment [1] concerns the target T1, rat Orexin-1 receptor (Rattus norvegicus, UniProt P56718).
T1 construct: expressed in transfected cells
T1 sequence (P56718 1-416): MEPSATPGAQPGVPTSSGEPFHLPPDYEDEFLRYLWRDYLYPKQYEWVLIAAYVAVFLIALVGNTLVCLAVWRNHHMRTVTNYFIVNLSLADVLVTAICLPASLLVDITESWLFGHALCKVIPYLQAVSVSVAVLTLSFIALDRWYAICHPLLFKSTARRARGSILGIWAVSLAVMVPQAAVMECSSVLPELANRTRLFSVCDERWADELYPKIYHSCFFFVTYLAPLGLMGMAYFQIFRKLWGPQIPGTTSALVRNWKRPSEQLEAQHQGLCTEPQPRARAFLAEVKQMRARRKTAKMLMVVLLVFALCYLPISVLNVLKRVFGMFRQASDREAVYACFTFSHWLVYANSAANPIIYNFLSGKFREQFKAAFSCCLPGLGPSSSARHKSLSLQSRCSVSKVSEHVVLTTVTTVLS
Put plainly: FLIPR antagonist affinity at cloned rat OX1 receptor (RBL cells). Format: cell-based. Conditions: read-out: fpKi. The source says:
(§1) Determination of Antagonist Affinity at Human Orexin-1 and 2 Receptors Using FLIPR
(§2) Adherent Chinese Hamster Ovary (CHO) cells, stably expressing the recombinant human Orexin-1 or human Orexin-2 receptors or Rat Basophilic Leukaemia Cells (RBL) stably expressing recombinant rat Orexin-1 or rat Orexin-2 receptors were maintained in culture in Alpha Minimum Essential Medium (Gibco/Invitrogen, cat. no.; 22571-020), supplemented with 10% decomplemented foetal bovine serum (Life Technologies, cat. no. 10106-078) and 400 μg/mL Geneticin G418 (Calbiochem, cat. no. 345810). Cells were grown as monolayers under 95%:5% air:CO2 at 37° C. […]
(§3) Compounds of the invention were tested in a final assay concentration range from 1.66×10^−5M to 1.58×10^−11 M. Compounds of the invention were dissolved in dimethylsulfoxide (DMSO) at a stock concentration of 10 mM. […] This final concentration of hOrexin A was equivalent to the calculated EC80 for hOrexinA agonist potency in this test system. […]
(§4) The loaded cells were then incubated for 10 min at 37° C. with test compound. The plates were then placed into a FLIPR™ (Molecular Devices, UK) to monitor cell fluorescence (λex=488 nm, λEM=540 nm) (Sullivan E, Tucker E M, Dale I L. Measurement of [Ca^2+]i using the fluometric imaging plate reader (FLIPR). In: Lambert DG (ed.), Calcium Signaling Protocols. New Jersey: Humana Press, 1999, 125-136). […]

Experiment [2] addresses T2, rat Orexin-2 receptor (Rattus norvegicus, UniProt P56719).
T2 construct: expressed in transfected cells
T2 sequence (P56719 1-460): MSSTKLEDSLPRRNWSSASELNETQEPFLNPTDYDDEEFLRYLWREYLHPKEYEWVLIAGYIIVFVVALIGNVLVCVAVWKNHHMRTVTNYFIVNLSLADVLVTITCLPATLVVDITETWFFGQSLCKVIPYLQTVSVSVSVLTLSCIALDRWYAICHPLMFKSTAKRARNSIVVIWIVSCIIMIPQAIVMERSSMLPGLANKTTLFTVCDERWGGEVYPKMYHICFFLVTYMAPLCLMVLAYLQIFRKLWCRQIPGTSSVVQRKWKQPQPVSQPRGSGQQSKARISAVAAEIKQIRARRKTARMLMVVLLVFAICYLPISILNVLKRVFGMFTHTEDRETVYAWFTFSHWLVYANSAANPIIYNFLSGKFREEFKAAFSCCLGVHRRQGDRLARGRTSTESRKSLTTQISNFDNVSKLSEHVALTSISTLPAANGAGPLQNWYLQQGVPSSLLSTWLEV
Put plainly: FLIPR antagonist affinity at cloned rat OX2 receptor (RBL cells). Format: cell-based. The settings on record: read-out: fpKi.
Excerpt: as §1, §2, §3, §4

Experiment [3] concerns rats. Conditions: cited from earlier work.
Experiment [4] concerns rats. Conditions: cited from earlier work. This is another data set of the same source.
Experiment [5] concerns freely-feeding rats. The settings on record: central administration, 4 hour time period; cited from earlier work.
The test system of experiment [6] is rats. The settings on record: central administration at the onset of the normal sleep period; cited from earlier work.

With `Cc1nc(C(=O)N2CCCC[C@H]2Cc2cn3cccc(F)c3n2)c(-c2ccccc2)s1` [Example 13, 8-fluoro-2-({(2S)-1-[(2-methyl-5-phenyl-1,3-thiazol-4-yl)carbonyl]-2-piperidinyl}methyl)imidazo[1,2-a]pyridine], the Ki in experiment [1] lay in the range of 1 to 5.01 nM; in experiment [2], 0.316 to 1 nM.

Consider `Cc1nc(C(=O)N2CCCC[C@H]2Cc2cn3cc(F)cc(C)c3n2)c(-c2ccccc2)s1` [Example 31, 6-fluoro-8-methyl-2-({(2S)-1-[(2-methyl-5-phenyl-1,3-thiazol-4-yl)carbonyl]-2-piperidinyl}methyl)imidazo[1,2-a]pyridine], for which the Ki in experiment [1] fell in the range of 1 to 5.01 nM; in experiment [2] it was 0.316 to 1 nM.

With `Cc1nc2ccc(NC(=O)Nc3ccnc4cccnc34)cc2o1` [SB334867], the high-fat pellet self-administration entry in experiment [3] is recorded as “attenuated”. In experiment [4], the hedonic eating entry is “potently reduced”.

For “orexin-A: ligand for the orexin-1 receptor; an agonist of the orexin receptors (QPLPDCCRQKTCSCRLYELLHGAGNHAAGILTL; ends and bridges not checked; cysteine pairing not given here; UniProt O43612 34-66, looked up)”, the “increase of food intake over control rats receiving vehicle” value in experiment [5] is “approximately four-fold”. Moreover, the arousal result in experiment [6] is given as “dose-related increase”.
